Measured values: patent publication US10940150B2, “Thymine derivatives and quinazoline-dione derivatives for the inhibition of HSP27” (TECHNISCHE UNIVERSITAET DRESDEN, priority 2014, dated 2021)

Columns and labels:
HSP27 [1] = biological target: T1, HSP27 (Homo sapiens, UniProt P04792); assay: Spectrophotometric protein aggregation assay (citrate synthase, HSP27 chaperone function); assay type: biochemical; conditions: for effect on chaperone function of HSP27 (CS aggregation) relative to 750 μmol/L BVDU: 43° C., 500 nm
Protocol: FIG. 1: a spectrophotometric protein aggregation assay at 43° C., a wavelength of 500 nm and a concentrations of the proteins: 1.44 μmol/L citrate synthase (CS), 481 nmol/L HSP27 (HSP) in a 40 mmol/L HEPES buffer (pH 7.4) during treatment with 14 or 28 μmol/L 2-(3-trichlorovinylphenylamino)-1,9-dihydropurin-6-one (CS+HSP+test substance no. 2), with 750 μmol/L BVDU (CS+HSP+BVDU) and without (CS+HSP; reference);
To measure the efficacy of the purine derivatives according to the invention, robust experiments for the chaperone function of the HSP27 protein were performed:
A known client protein (=substrate on which HSP27 acts as a chaperone) of HSP27 is citrate synthase. Citrate synthase is denatured when the temperature increases to 43° C. This heat denaturation is prevented or delayed by the presence of HSP27 [Jakob U, 1993]. By adding the novel active ingredients, their efficacy can thus be measured through the inhibition of the HSP27 chaperone function.
To determine the activity (i.e. the effect on the aggregation behaviour of the citrate synthase (CS) after thermal incubation) of 2-(3-trichlorovinylphenylamino)-1,9-dihydropurin-6-one in comparison to BVDU, four different batches containing 1.44 μmol/L CS, 481 nmol/L HSP27 (HSP) in a 40 mmol/L HEPES buffer (pH 7.4) were prepared and BVDU (750 μmol/L) or various concentrations of 2-(3-trichlorovinylphenylamino)-1,9-dihydropurin-6-one (14 μmol/L; 28 μmol/L) were added. The samples were then incubated at 43° C. and the aggregation behaviour of the CS was […] in a spectrometer (PerkinElmer LS55, PerkinElmer Inc.) at a wavelength of 500 nm.
It can be seen from FIG. 1 that the protein citrate synthase (graph CS alone) is denatured by increasing the temperature to 43° C. and forms aggregates. The aggregation is measured in the spectrometer at 500 nm (light scattering by protein aggregates). The presence of HSP27 (HSP) counteracts the aggregation (cf. graph, CS+HSP). Since the addition of the test substances (BVDU and 2-(3-trichlorovinylphenylamino)-1,9-dihydropurin-6-one) inhibits the chaperone function of HSP27, the activity of the respective test substance can be determined by measuring the aggregation behaviour of the CS.

RPMI-8226 cells [2] = assay: Development of resistance to bortezomib in RPMI-8226 cells; assay type: cell-based
Protocol: The cell line RPMI-8226 (DMSZ 402) is a “multiple myeloma” cell line and was chosen because bortezomib is employed as a standard therapy for multiple myeloma. RPMI-8226 cells respond to bortezomib, express HSP27 and develop resistance to Velcade. RPMI-8226 cells were seeded at a cell count of 100,000 cells/ml in each case and regularly passaged. […] In contrast, for RPMI 8226 cells that were treated with 30 μmol/L BVDU, a final cell count of 160,000 cells/ml was detected whereas the final cell count for the culture without the addition of an HSP27 inhibitor amounted to 350,000 cells/ml. As a control, RPMI 8226 cells were treated with the respective test substances alone, FIG. 4b.

RPMI-8226 cells [3] = assay: as above; assay type: cell-based; conditions: bortezomib 0.1-0.3 ng/ml + 1 μmol/L test substance (FIG. 7a); without HSP27 inhibitor 950,000 cells/ml
HSP27 [4] = biological target: T1, HSP27; assay: Capillary electrophoresis of heat-denatured citrate synthase protein precipitates; assay type: biochemical; conditions: for Rel. quantity of protein prec. CS: 10 μmol/L
Protocol: Since the heat-denatured protein aggregates of the citrate synthase from Example 1 are not water-soluble, these can be separated completely from the supernatant by means of centrifugation at room temperature at 16,000×g, 10 min. By using capillary electrophoresis, the compositions of the separated precipitates can be shown and quantified. The relative quantity of protein of precipitated citrate synthase serves as a measure of the efficacy of the test substances.
In each case, 481 nmol/L HSP27 and 1.44 μmol/L citrate synthase in 40 mmol/L HEPES buffer, pH 7.4, were employed. The relative quantity of protein of the precipitated citrate synthase in each case was normalized using a defined quantity of BSA as internal standard. The relative quantity of protein that precipitated when using 750 μmol/L BVDU was set at 1. The other test substances (2 representatives of phenothiazine derivatives of general formula (V), 2 representatives of purine derivatives of formula (I) or (II)) were each employed at a concentration of 10 μmol/L.
Since the heat-denatured protein aggregates of the citrate synthase from Example 2 are not water-soluble, these can be separated completely from the supernatant by means of centrifugation at room temperature at 16,000×g, 10 min. By using capillary electrophoresis, the compositions of the separated precipitates can be shown and quantified. The relative quantity of protein of precipitated citrate synthase serves as a measure of the efficacy of the test substances.
In each case, 481 nM HSP27 and 1.44 μmol/L citrate synthase in 40 mmol/L HEPES buffer, pH 7.4, were employed. The relative quantity of protein of the precipitated citrate synthase in each case was normalized using a defined quantity of BSA as internal standard. The relative quantity of protein that precipitated when using 750 μmol/L BVDU was set at 1. The other test substances (2 representatives of phenothiazine derivatives of general formula (V), 2 representatives of thymine derivatives of formula (I) or (II)) were employed at a concentration of 10 μmol/L in each case.
Otherwise, the experiments were performed as described above: […]

HSP27 [5] = biological target: T1, HSP27; assay: Bio-layer interferometry binding to HSP27; conditions: wet-chemical experiments
Description: Bio-layer interferometry is a technique for detecting biomolecular interactions. It is an analytical technique that measures the optical interference of white light which is reflected by two surfaces: in each case, one surface consists of a layer of the immobilized target protein on the tip of the biosensor and one is an internal reference surface. The binding of ligands to the target protein alters the interference pattern and can be measured in real time.
For the measurements, an instrument of the ForteBio Octet Red 384 brand was used. The target protein HSP27 was biotinylated and bound to the appropriate sensors (SSA). […]
For measurements by bio-layer interferometry, biotinylated HSP27 protein was first bound to Super-Streptavidin sensors (SSA, Fortebio). […] In the case of a specific binding to HSP27 of the analyte to be measured, the loaded HSP27 sensor generates a stronger signal (response) than the concurrent reference sensor. After the “baseline” has been established by incubation with the reaction buffer (PBST 0.1% Tween 20 plus 3% DMSO), first the association and then the dissociation of the respective analyte is measured in real time. The analytes were measured in increasing concentrations in each case: 1.23-3.7-11.11-33.33-100-300 μM/l.

[6] = 10 μmol/L vs 750 μmol/L BVDU, 43° C. for 120 minutes (Table 1)
[7] = 43° C. for 120 minutes, relative to 750 μmol/L BVDU = 1 (Table 1)

T1 sequence (P04792 whole entry): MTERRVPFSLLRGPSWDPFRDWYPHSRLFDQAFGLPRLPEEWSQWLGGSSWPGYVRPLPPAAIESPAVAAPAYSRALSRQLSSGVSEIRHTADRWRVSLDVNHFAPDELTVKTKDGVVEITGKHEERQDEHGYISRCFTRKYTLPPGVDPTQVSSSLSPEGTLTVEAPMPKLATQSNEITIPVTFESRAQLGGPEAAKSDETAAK

Compound | effect on chaperone function of HSP27 (CS aggregation) relative to 750 μmol/L BVDU (HSP27 [1]; 14 μmol/L) | effect on chaperone function of HSP27 (CS aggregation) relative to 750 μmol/L BVDU (HSP27 [1]; 28 μmol/L) | BVDU equivalent dose (HSP27 [1]; based on 100 mg BVDU) | development of resistance to the cytostatic agent bortezomib (RPMI-8226 cells [2]; bortezomib 0.1-0.3 ng/ml + 1 μmol/L test substance (FIG. 7a)) | living cells at the end of the experiment (RPMI-8226 cells [3]) | times higher activity than BVDU for the inhibition of the HSP27 protein (HSP27 [4]; 10 μmol/L vs 750 μmol/L BVDU, 43° C. for 120 minutes) [times] | Efficacy compared with BVDU (HSP27 [4]; [6]) [x] | Rel. quantity of protein prec. CS (HSP27 [4]; [7]) | BVDU equivalent dose (HSP27 [4]; based on 100 mg BVDU) | development of resistance to the cytostatic agent bortezomib (RPMI-8226 cells [2]; bortezomib 0.2-0.4 ng/ml + 0.5 μmol/L chlorpromazine (FIG. 5a)) | living cells at the end of the experiment (RPMI-8226 cells [2]; bortezomib 0.2-0.4 ng/ml + 0.5 μmol/L chlorpromazine (FIG. 5a), without HSP27 inhibitor 350,000 cells/ml) | Efficacy compared with BVDU (HSP27 [4]; 10 μmol/L vs 750 μmol/L BVDU, 43° C. for 120 minutes (Table 2)) [x] | Rel. quantity of protein prec. CS (HSP27 [4]; 43° C. for 120 minutes, relative to 750 μmol/L BVDU = 1 (Table 2)) | affinity for interaction with HSP27 (HSP27 [5])
O=c1[nH]c(Nc2cccc(C(Cl)=C(Cl)Cl)c2)nc2[nH]cnc12 [2-(3-trichlorovinylphenylamino)-1,9-dihydropurin-6-one] | comparable effect | significantly more pronounced effect | less than 1.9 mg | significantly inhibited | 270,000 living cells per ml medium | 53 | 53.25 | 0.71 | less than 1.9 mg |  |  |  |  | 
CN(C)CCCN1c2ccccc2Sc2ccc(Cl)cc21 [Chlorpromazine, reference compound] |  |  |  |  |  |  | 79.5 | 1.06 |  | significantly inhibited | 70,000 living cells per ml medium | 79.5 | 1.06 | only a low affinity
